Structures can show the parent of a compound that is named as a salt.
tested on: Acinetobacter baumannii ATCC 17978; test: Antimicrobial susceptibility testing: 90% growth inhibitory concentration (IC90) determination; type: cell-based; conditions: 90% growth inhibitory concentration; Acinetobacter baumannii ATCC17978; Iso-Sensitest broth, OD 600 nm over 16h; read-out: ATCC17978 IC90
Outline: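 Compounds serially twofold diluted (e.g. 50 to 0.097 μM final) in Iso-Sensitest broth, inoculated at ~5×10^(5) CFU/ml, incubated at 35±2° C. OD600 read every 20 minutes over 16h. IC90 taken as concentration inhibiting 90% of growth during logarithmic phase.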

SMILES	IC90
COc1ccc(-c2cnc3c(Nc4ccc(C(=O)N(C)CCN5CCN(CC(F)F)CC5)c(C)c4)nccn23)cc1F [Example 113, N-[2-[4-(2,2-difluoroethyl)piperazin-1-yl]ethyl]-4-[[3-(3-fluoro-4-methoxy-phenyl)imidazo[1,2-a]pyrazin-8-yl]amino]-N,2-dimethyl-benzamide; formic acid]	2000 nM
Cc1cc(Nc2nccn3c(-c4ccc(OCC#N)c(F)c4F)cnc23)ccc1C(=O)NCCNC(=O)[C@@H]1CCNC[C@@H]1O [Example 451, (3R,4R)-N-[2-[[4-[[3-[4-(cyanomethoxy)-2,3-difluoro-phenyl]imidazo[1,2-a]pyrazin-8-yl]amino]-2-methyl-benzoyl]amino]ethyl]-3-hydroxy-piperidine-4-carboxamide; formic acid]	760 nM
CCc1cc(Nc2nccn3c(-c4ccc(OC)c(F)c4F)cnc23)ccc1C(=O)NCC(C)CNC(=O)[C@@H](N)CCCNC(=N)N (mixture of isomers) [Example 406, rac-N-(3-((R)-2-amino-5-guanidinopentanamido)-2-methylpropyl)-4-((3-(2,3-difluoro-4-methoxyphenyl)imidazo[1,2-a]pyrazin-8-yl)amino)-2-ethylbenzamide diformate]	240 nM
CCc1cc(Nc2nccn3c(-c4ccc(OC)c(F)c4Cl)cnc23)ccc1C(=O)NCCCN [Example 389, N-(3-aminopropyl)-4-[[3-(2-chloro-3-fluoro-4-methoxyphenyl)imidazo[1,2-a]pyrazin-8-yl]amino]-2-ethylbenzamide; hydrochloride]	500 nM
COc1ccc(-c2cnc3c(Nc4ccc(C(=O)NCCCCN)c(Cl)c4)nccn23)c(F)c1F [Example 515, N-(4-aminobutyl)-2-chloro-4-((3-(2,3-difluoro-4-methoxyphenyl)imidazo[1,2-a]pyrazin-8-yl)amino)benzamide hydrochloride]	42 nM
COc1ccc(-c2cnc3c(Nc4ccc(C(=O)NCCN5CCNCC5)c(C)c4)nccn23)c(F)c1F [Example 56, 4-((3-(2,3-difluoro-4-methoxyphenyl)imidazo [1,2-a]pyrazin-8-yl)amino)-2-methyl-N-(2-(piperazin-1-yl)ethyl)benzamide hydrochloride]	250 nM
CCc1cc(Nc2nccn3c(-c4ccc(Oc5ccc(C(=O)NCCCN)cn5)c(F)c4F)cnc23)ccc1C(=O)NC [Example 507, N-(3-aminopropyl)-6-[4-[8-[3-ethyl-4-(methylcarbamoyl)anilino]imidazo[1,2-a]pyrazin-3-yl]-2,3-difluoro-phenoxy]pyridine-3-carboxamide; formic acid]	500 nM

same assay, conditions: Acinetobacter baumannii, ATCC17978, 16 h, 90% growth inhibitory concentration; Acinetobacter baumannii ATCC17978; Iso-Sensitest broth, OD 600 nm over 16h; read-out: ATCC17978 IC90

IC90	SMILES
171 nM	COc1ccc(-c2cnc3c(Nc4ccc(C(=O)NCCCCCCCN)c(Cl)c4)nccn23)c(F)c1F [Example 518, N-(7-aminoheptyl)-2-chloro-4-((3-(2,3-difluoro-4-methoxyphenyl)imidazo[1,2-a]pyrazin-8-yl)amino)benzamide hydrochloride]
270 nM	CCc1cc(Nc2nccn3c(-c4ccc(OC)c(F)c4F)cnc23)ccc1C(=O)NCC1CCN(CC(=O)O)CC1 [Example 559, 2-[4-[[[4-[[3-(2,3-difluoro-4-methoxy-phenyl)imidazo[1,2-a]pyrazin-8-yl]amino]-2-ethyl-benzoyl]amino]methyl]-1-piperidyl]acetic acid]
100 nM	CCc1cc(Nc2nccn3c(-c4ccc(OCC#N)c(F)c4F)cnc23)ccc1C(=O)NCCNC(=O)[C@H](N)CCCNC(=N)N [Example 148, N-[2-[[(2R)-2-amino-5-guanidino-pentanoyl]amino]ethyl]-4-[[3-[4-(cyanomethoxy)-2,3-difluoro-phenyl]imidazo[1,2-a]pyrazin-8-yl]amino]-2-ethyl-benzamide formate]
1100 nM	CCCc1cc(Nc2nccn3c(-c4ccc(OC(F)F)cc4)cnc23)ccc1C(=O)NC [Example 152, 4-((3-(4-(Difluoromethoxy)phenyl)imidazo[1,2-a]pyrazin-8-yl)amino)-N-methyl-2-propylbenzamide]
190 nM	CCc1cc(Nc2nccn3c(-c4ccc(OC)c(F)c4F)cnc23)ccc1C(=O)NC(C)(C)CNC(=O)[C@@H](N)CCCCN [Example 326, N-[1-[[(2S)-2,6-diaminohexanoyl]amino]-2-methylpropan-2-yl]-4-[[3-(2,3-difluoro-4-methoxyphenyl)imidazo[1,2-a]pyrazin-8-yl]amino]-2-ethylbenzamide]
170 nM	COc1ccc(-c2cnc3c(Nc4ccc(C(=O)NCCCS(=O)(=O)N5CCNCC5)c(C)c4)nccn23)c(F)c1F [Example 68, 4-((3-(2,3-difluoro-4-methoxyphenyl)imidazo [1,2-a]pyrazin-8-yl)amino)-2-methyl-N-(3-(piperazin-1-ylsulfonyl)propyl) benzamide]
69 nM	COc1ccc(-c2cnc3c(Nc4ccc(C(=O)N[C@H](C)CNC(C)=N)c(Cl)c4)nccn23)c(F)c1F [Example 501, 2-chloro-4-[[3-(2,3-difluoro-4-methoxyphenyl)imidazo[1,2-a]pyrazin-8-yl]amino]-#N!- [(2#R!)-1-(ethanimidoylamino)propan-2-yl]benzamide]
320 nM	COc1ccc(-c2cnc3c(Nc4ccc(C(=O)N[C@@H](C)CN)c(C)c4)nccn23)c(F)c1F [Example 508, #N!-[(2#S!)-1-aminopropan-2-yl]-4-[[3-(2,3-difluoro-4-methoxyphenyl)imidazo[1,2-a]pyrazin-8-yl]amino]-2-methylbenzamide;dihydrochlo-ride]
550 nM	COc1ccc(-c2cnc3c(Nc4ccc(C(=N)NCC(N)=O)c(C)c4)nccn23)cc1 [Example 17]
220 nM	COc1ccc(-c2cnc3c(Nc4ccc(C(=O)NCCC5CCN(C)CC5)c(C)c4)nccn23)cc1 [Example 48]
750 nM	COc1ccc(-c2cnc3c(Nc4ccc(C(=O)NCC5CCN(C)CC5)c(C)c4)nccn23)cc1 [Example 52, 4-[[3-(4-methoxyphenyl)imidazo [1,2-a]pyrazin-8-yl]amino]-2-methyl-N-[(1-methylpiperidin-4-yl)methyl]benzamide]
350 nM	COc1ccc(-c2cnc3c(Nc4ccc(C(=O)N(C)CCCN5CCNCC5)c(C)c4)nccn23)cc1F [Example 275, 4-[[3-(3-fluoro-4-methoxyphenyl)imidazo[1,2-a]pyrazin-8-yl]amino]-N,2-dimethyl-N-(3-piperazin-1-ylpropyl)benzamide]
1200 nM	CCN(CC)C(=O)c1ccc(Nc2nccn3c(-c4ccc(OC)cc4)cnc23)cc1C [Example 220, N,N-diethyl-4-[[3-(4-methoxyphenyl)imidazo[1,2-a]pyrazin-8-yl]amino]-2-methylbenzamide]
570 nM	CN(CCCn1c(=O)c(=O)[nH]n(C)c1=S)C(=O)c1ccc(Nc2nccn3c(-c4ccc(OCC#N)c(F)c4F)cnc23)cc1Cl [Example 396, 2-chloro-4-((3-(4-(cyanomethoxy)-2,3-difluorophenyl)imidazo[1,2-a]pyrazin-8-yl)amino)-N-methyl-N-(3-(2-methyl-5,6-dioxo-3-thioxo-1,2,4-triazinan-4-yl)propyl)benzamide]
270 nM	COc1ccc(-c2cnc3c(Nc4ccc(C(=O)N[C@@H](C)CN)c(Cl)c4)nccn23)c(F)c1F [Example 505, #N!-[(2#S!)-1-aminopropan-2-yl]-2-chloro-4-[[3-(2,3-difluoro-4-methoxyphenyl)imidazo[1,2-a]pyrazin-8-yl]amino]benzamide;dihydro-chloride]
480 nM	CCc1cc(Nc2nccn3c(-c4ccc(OC(F)F)c(F)c4F)cnc23)ccc1C(=O)NCCCN [Example 276, N-(3-aminopropyl)-4-[[3-[4-(difluoromethoxy)-2,3-difluorophenyl]imidazo[1,2-a]pyrazin-8-yl]amino]-2-ethylbenzamide;hydrochloride]
630 nM	COc1ccc(-c2cnc3c(Nc4ccc(C(=O)N(C)CC5CCNCC5)c(C)c4)nccn23)cc1F [Example 210, 4-[[3-(3-fluoro-4-methoxyphenyl)imidazo[1,2-a]pyrazin-8-yl]amino]-N,2-dimethyl-N-(piperidin-4-ylmethyl)benzamide;hydrochlo-ride]
1500 nM	COc1ccc(-c2cnc3c(Nc4ccc(C(=O)N(C)CCN5CCCCC5)c(Cl)c4)nccn23)cc1F [Example 237, 2-chloro-4-[[3-(3-fluoro-4-methoxyphenyl)imidazo[1,2-a]pyrazin-8-yl]amino]-N-methyl-N-(2-piperidin-1-ylethyl)benzamide]
170 nM	CCc1cc(Nc2nccn3c(-c4ccc(OC)c(F)c4F)cnc23)ccc1C(=O)NCC1CCN(C(=N)N)CC1 [Example 298, N-[(1-carbamimidoylpiperidin-4-yl)methyl]-4-[[3-(2,3-difluoro-4-methoxyphenyl)imidazo[1,2-a]pyrazin-8-yl]amino]-2-ethylbenzamide]
2500 nM	Cc1cc(Nc2nccn3c(-c4ccc(Cl)c(F)c4F)cnc23)ccc1C(=O)NCCN [Example 249, N-(2-aminoethyl)-4-[[3-(4-chloro-2,3-difluorophenyl)imidazo[1,2-a]pyrazin-8-yl]amino]-2-methylbenzamide;hydrochlo-ride]
410 nM	CCc1cc(Nc2nccn3c(-c4ccc(OC)c(F)c4F)cnc23)ccc1C(=O)NC[C@H](C)NC(=O)[C@@H](N)CCCNC(=N)N [Example 123, N-[(2S)-2-[[(2S)-2-amino-5-guanidino-pentanoyl]amino]propyl]-4-[[3-(2,3-difluoro-4-methoxy-phenyl)imidazo[1,2-a]pyrazin-8-yl]amino]-2-ethyl-benzamide formate]
170 nM	CNC(=O)c1ccc(Nc2nccn3c(-c4ccc(OC(F)F)cc4)cnc23)cc1C [Example 26]
230 nM	CNC(=O)c1ccc(Nc2nccn3c(-c4ccc(Cl)cc4)cnc23)cc1C [Example 185, 4-[[3-(4-chlorophenyl)imidazo[1,2-a]pyrazin-8-yl]amino]-N,2-dimethylbenzamide]

From US20230012368A1 (Hoffmann-La Roche Inc., priority 2018, published 2023)
